Where “and” joins values, the source holds several entries; their conditions need not be identical. Equal entries are not always repeated.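 Step 1: Grow cells in 96-well plates. Step 2: Expose to compound for 48 hours at 5 concentrations. Step 3: Interpolate endpoints linearly; if unreached, use highest concentration. At the GI50, growth is halved. At the TGI there is no net growth.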 Where a SMILES comes first, the peptide text is derived from it. Bridges are numbered along the chain shown (N, C = ends). [ ]: non-standard residue; d: D form. The star is where a group is joined. Phe(3,5-F2) = N[C@@H](Cc1cc(F)cc(F)c1)C(=O)O; Pro(4R-Me) = C[C@H]1CN[C@H](C(=O)O)C1; aThr = C[C@H](O)[C@H](N)C(=O)O; Pip = O=C(O)[C@@H]1CCCCN1; X7 = CCC/C=C/C=C/C(=O)*

Some test systems named below: MDA-MB-468 breast; A498 renal; BT-549 breast; CAKI-1 renal; CCRF-CEM leukemia; COLO 205 colon; DU-145 prostate; HCC-2998 colon; HCT-116 colon; HOP-62 NSCLC; HS 578T breast; IGROV1 ovarian; MDA-MB-231 breast; MDA-MB-435; MOLT-4 leukemia; NCI-H226 lung; OVCAR-3 ovarian; OVCAR-5 ovarian; RXF 393 renal; SF-539 CNS; SK-MEL-28 melanoma; SK-OV-3 ovarian; SNB-19 CNS; SNB-75 CNS; SW-620 colon; TK-10 renal; U251 CNS.

Assay in all cases: inhibition of tumour cell growth, NCI panel, 48 h

Take `Cc1ccc([I+]c2ccc(C)cc2)cc1`: in the assay with MDA-MB-468 breast, the GI50 was 0.264 µM and the TGI was 40 µM.
For the compound `O=C1NC(=N[C@@H]2C[C@H]2c2ccccc2)S/C1=C\c1ccc2ncccc2c1`, in the assay on MDA-MB-468 breast, the GI50 is 0.872 µM and the TGI is 5.85 µM.
Take `CN1CCc2c(sc3ncnc(N/N=C/c4cn(-c5ccccc5)nc4-c4ccc(Br)cc4)c23)C1`: the GI50 is greater than 100 µM in the assay with A498 renal; greater than 100 µM in the assay with BT-549 breast; greater than 100 µM in the assay with CAKI-1 renal; 0.196 µM in the assay on CCRF-CEM leukemia; 0.332 µM in the assay with COLO 205 colon; greater than 100 µM in the assay with DU-145 prostate. Further, the GI50 in the assay on HCC-2998 colon was 0.285 µM; with HCT-116 colon, 0.102 µM; in the assay on HOP-62 NSCLC it was 0.399 µM; in the assay on HS 578T breast it was 16.4 µM; in the assay on IGROV1 ovarian, 0.322 µM; in the assay on MDA-MB-231 breast, 0.362 µM. The GI50 in the assay on MDA-MB-435 is greater than 100 µM; in the assay with MOLT-4 leukemia it was 0.261 µM; with NCI-H226 lung it was greater than 100 µM; in the assay on OVCAR-3 ovarian, 0.0375 µM; in the assay with OVCAR-5 ovarian it was greater than 100 µM; in the assay with RXF 393 renal it was 18.3 µM. The GI50 was 0.282 µM in the assay on SF-539 CNS; greater than 100 µM in the assay on SK-MEL-28 melanoma; greater than 100 µM in the assay on SK-OV-3 ovarian; 20.3 µM in the assay on SNB-19 CNS; 5.88 µM in the assay with SNB-75 CNS; 0.352 µM with SW-620 colon. The GI50 in the assay with TK-10 renal was greater than 100 µM; in the assay on U251 CNS, 0.636 µM. Moreover, the TGI in the assay with A498 renal, in the assay on BT-549 breast, in the assay on CAKI-1 renal, in the assay on CCRF-CEM leukemia, with COLO 205 colon and in the assay on DU-145 prostate was greater than 100 µM in each case. For the same compound, the TGI with HCC-2998 colon, in the assay on HCT-116 colon, in the assay on HOP-62 NSCLC, with HS 578T breast, in the assay with IGROV1 ovarian and in the assay on MDA-MB-231 breast was greater than 100 µM in each case. In addition, the TGI is greater than 100 µM with MDA-MB-435; greater than 100 µM in the assay on MOLT-4 leukemia; greater than 100 µM in the assay with NCI-H226 lung; 0.304 µM in the assay with OVCAR-3 ovarian; greater than 100 µM in the assay on OVCAR-5 ovarian; greater than 80.7 µM with RXF 393 renal. Also, the TGI in the assay on SF-539 CNS, in the assay with SK-MEL-28 melanoma, with SK-OV-3 ovarian, in the assay with SNB-19 CNS, in the assay on SNB-75 CNS and in the assay on SW-620 colon was greater than 100 µM throughout. Besides, the TGI with TK-10 renal and in the assay on U251 CNS was greater than 100 µM each time.
In the case of `CN1CCN(C(=O)OCc2nc3c(N4CCOCC4)nc(-c4ccccc4)nc3n2C)CC1`, in the assay on MDA-MB-468 breast, the GI50 is 0.558 µM and the TGI was 2.02 µM.
Consider `COc1ccc(/C=C/C(=O)c2ccc(B(O)O)cc2)cc1O`, for which, in the assay with MDA-MB-468 breast, the GI50 is 6.23 µM and the TGI was 18.4 µM.
The corresponding values for `O=C(NCCNc1nccc(-c2c(-c3ccc(F)cc3)nc3sccn23)n1)Nc1cccc(C(F)(F)F)c1` are 2.14 µM and 7.46 µM.
Regarding `CO[C@@H]1[C@H](N(C)C(=O)c2ccccc2)C[C@@H]2O[C@]1(C)n1c3ccccc3c3c4c(c5c6ccccc6n2c5c31)C(=O)NC4=O`, in the assay on MDA-MB-468 breast, the GI50 was 0.335 µM and the TGI is greater than 100 µM.
Taken in the same sequence, the figures for `Nc1nc(N)c2cc(Sc3ccc(Cl)cc3)ccc2n1` were 1.15 µM and 2.71 µM.
Take `COc1c(O)cc2c(c1CC=C(C)C)OC(=O)c1c(cc(O)c(CC=C(C)C)c1O)O2`: in the assay on MDA-MB-468 breast, the GI50 was 4.19 µM and the TGI was determined as 8.21 µM.
Consider `CCC/C=C/C=C/C(=O)N[C@@H](Cc1cc(F)cc(F)c1)C(=O)N[C@@H]1C(=O)N2CCC[C@H]2C(=O)N2CCCC[C@H]2C(=O)N[C@@H](C)C(=O)N2C[C@H](C)C[C@H]2C(=O)O[C@H]1C` (X7-[Phe(3,5-F2)][aThr]P[Pip]A[Pro(4R-Me)]; ester 2-C), for which, in the assay on MDA-MB-468 breast, the GI50 is 0.271 µM and the TGI was 1.03 µM.
`COc1cc2cc(Oc3ccc(NC(=O)Nc4ccc(F)c(C(F)(F)F)c4)cc3)c(C)nc2cc1OCCN1CCOCC1`: in the assay with MDA-MB-468 breast, the GI50 was 0.451 µM and the TGI stood at 10.4 µM.
As for `O=C(NC(=S)Nc1ccc(-c2nc3ccccc3[nH]2)cc1)c1ccc2ccccc2c1`, in the assay with MDA-MB-468 breast, the GI50 is 2.34 µM and the TGI came out at 7.72 µM.
Taken in the same sequence, the figures for `NS(=O)(=O)c1ccc(N=Nc2c(O)[nH]c3cccc(CCc4ccncc4)c23)cc1` were greater than 25 µM and greater than 25 µM.
Consider `Nc1ncnc2occ(-c3ccc(NC(=O)Nc4cc(C(F)(F)F)ccc4F)cc3)c12`, for which, in the assay with MDA-MB-468 breast, the GI50 was 4.46 µM and 3.9 µM; the TGI was 12.4 µM and 11.8 µM.
Consider `Cc1cccc2c1NC(=O)[C@@H](NC(=O)[C@H](CCC(F)(F)F)[C@H](CCC(F)(F)F)C(N)=O)N=C2c1cccc(F)c1`, for which, in the assay on MDA-MB-468 breast, the GI50 is 18.5 µM and the TGI was greater than 100 µM.
The corresponding values for `CC[n+]1c(/C=C/c2ccc(N3CCCC3)cc2)cccc1/C=C/c1ccc(N2CCCC2)cc1` are 0.0423 µM and 0.196 µM.
The corresponding values for `COC(=O)CC12CC(NC(=O)c3csc([C@@H](C[C@H](C(C)C)N(C)C(=O)[C@@H](NC(=O)[C@H]4CCCCN4C)C(C)C)OC(C)=O)n3)(C1)C2` are 0.00438 µM and greater than 33.3 µM.
The corresponding values for `CCOC(=O)Nc1ccc2c3c(cccc13)-c1ccccc1-2` are 1.37 µM and 5.21 µM.
Regarding `Oc1c(CCl)cc(Cl)cc1Cc1cc(Cl)cc(Cc2cc(Cl)cc(CCl)c2O)c1O`, in the assay on MDA-MB-468 breast, the GI50 was 3.28 µM and the TGI turned out to be 13.1 µM.
Taken in the same sequence, the figures for `Cc1cc(C)c2c(=O)cc(-c3ccccc3)[nH]c2c1` were 3.79 µM and 25.5 µM.
Taken in the same sequence, the figures for `C#CCN(C)CCCOc1ccc(NCc2ccc(C(=O)NO)cc2)cc1Cl` were 1.7 µM and 8.14 µM.
In the case of `COC(=O)Nc1nc2ccc(C(=O)C3CC3)cc2[nH]1`, in the assay with MDA-MB-468 breast, the GI50 is 0.247 µM and the TGI is 1.48 µM.
The corresponding values for `O=C(CSc1nc2ccc([N+](=O)[O-])cc2[nH]1)Nc1ccc([N+](=O)[O-])cc1` are 1.08 µM and 5.05 µM.
Consider `Nc1n[nH]c2ccc([C@H]3[C@@H]4C5CCC(C5)[C@@H]4c4c(ccc5[nH]ncc45)N3S(=O)(=O)C3CC3)cc12` (stereo partly drawn), for which, in the assay with MDA-MB-468 breast, the GI50 was 0.137 µM and the TGI is 1.7 µM.
Taken in the same sequence, the figures for `NCCSC1(O)C(=O)c2ccccc2-c2ccccc21` (stereo not drawn) were 0.615 µM and 2.12 µM.
For the compound `NNC(=S)N/N=C/c1ccccn1`, in the assay with MDA-MB-468 breast, the GI50 was 1.94 µM and the TGI turned out to be 5.59 µM.
As for `CN1CCN(Cc2ccc(NC(=O)c3cncc(C#Cc4cnc5ccc(OCC6COC6)nn45)c3)cc2C(F)(F)F)CC1`, in the assay on MDA-MB-468 breast, the GI50 is 0.196 µM and the TGI was found to be 0.726 µM.
Taken in the same sequence, the figures for `COc1ncnn2ccc(-c3cnc4nc(C)n(Cc5nnc(C(C)F)o5)c4c3)c12` (stereo not drawn) were 0.051 µM and 0.309 µM.
Consider `CC(C)[C@]12O[C@H]1[C@@H]1O[C@]13[C@]1(O[C@H]1C[C@H]1C4=C(CC[C@@]13C)C(=O)OC4)[C@@H]2OC(=O)OC(C)(C)C`, for which, in the assay on MDA-MB-468 breast, the GI50 was 0.0147 µM and the TGI was 0.0361 µM.
The corresponding values for `CC(=O)N[C@@H](Cc1ccc(OP(=O)(O)O)cc1)C(=O)N[C@H]1CCC(=O)N2CCC[C@@H](C(=O)NCc3cccc4ccccc34)N2C1=O` are greater than 25 µM and greater than 25 µM.
The corresponding values for `CC(C)c1ccc2c(c1)CCC1C(C)(CN)CCCC21C` (stereo not drawn) are 1.43 µM and 2.76 µM.
Taken in the same sequence, the figures for `O=C1/C(=C\c2ccc(Cl)cc2)CN(C(=O)c2ccccc2)C/C1=C\c1ccc(Cl)cc1` were 1.86 µM and 4.28 µM.
`COc1ccc2c(c1)OC(N)=C(C#N)C2c1ccc(F)c(F)c1` (stereo not drawn): in the assay on MDA-MB-468 breast, the GI50 was 0.222 µM and the TGI was found to be 3.56 µM.
The corresponding values for `N#C/C(=C\c1ccc([N+](=O)[O-])cc1)n1nnc2cc(F)c(F)cc21` are 1.51 µM and 3.53 µM.
Take `CCN1C2=C(SC(=S)C1=C1SC(C(=O)c3ccccc3)=C(C(=O)c3ccccc3)S1)SC(=Nc1ccccc1)C2=O`: in the assay on MDA-MB-468 breast, the GI50 is greater than 50.4 µM and the TGI is greater than 100 µM.
Consider `COc1cccc(Nc2ncnn3ccc(CN4CC[C@@H](N)[C@H](O)C4)c23)c1`, for which, in the assay with MDA-MB-468 breast, the GI50 was 0.0333 µM and 0.0201 µM; the TGI was 0.79 µM and 0.175 µM.
In the case of `COc1ccc(-c2nc(Nc3ccc(F)cc3)nc(Nc3ccc4c(c3)nc(C)n4Cc3ccccc3)n2)cc1`, in the assay with MDA-MB-468 breast, the GI50 is 2.27 µM and the TGI is 7.22 µM.
The corresponding values for `O=C(/C=C/c1cccnc1)c1ccccc1` are 8.22 µM and 22 µM.
Turning to `ClCCN(CCCl)c1ccc(OCc2ccccc2)cc1`, in the assay with MDA-MB-468 breast, the GI50 was 1.45 µM and the TGI stood at 16.7 µM.
